Data taken from ChEMBL document CHEMBL1201862, “PubChem BioAssay data set” (2004).
Activity calls are given as the source filed them.

Tests used:
[1] = HEK-293T viability loss after treatment – luminescence, T-cell screen hits, cytotoxicity control for TCR NF-kB inhibitor project, dose response (AID 489026); format: functional, cell-based;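 note: cells exposed to compound about 14 hours before the viability readout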
[2] = system: H9c2; assay: cells; format: functional, cell-based; conditions: Rattus norvegicus, H9c2, Myocardium;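 note: confirmatory concentration-response retest of ultra-high-throughput screening hits for modulation of myocardial damage; cell death induced by hydrogen peroxide oxidative stress; compound pretreatment for 60 min then peroxide exposure for 2 h; potency is for protecting the cells against peroxide damage rather than for killing them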
[3] = molecular target: Induced myeloid leukemia cell differentiation protein Mcl-1 (Homo sapiens, UniProt Q07820); format: functional
Induced myeloid leukemia cell differentiation protein Mcl-1, sequence (Q07820 whole entry): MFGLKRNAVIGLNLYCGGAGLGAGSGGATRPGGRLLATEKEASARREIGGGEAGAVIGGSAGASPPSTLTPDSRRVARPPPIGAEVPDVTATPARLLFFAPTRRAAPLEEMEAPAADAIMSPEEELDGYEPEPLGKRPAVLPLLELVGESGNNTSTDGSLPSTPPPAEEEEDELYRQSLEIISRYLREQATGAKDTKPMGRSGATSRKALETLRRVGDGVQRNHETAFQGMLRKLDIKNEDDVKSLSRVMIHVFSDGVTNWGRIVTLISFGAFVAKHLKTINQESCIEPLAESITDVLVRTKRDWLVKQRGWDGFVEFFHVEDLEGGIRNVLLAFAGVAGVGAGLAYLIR

[4] = HPDE-C7 pancreatic duct cell viability loss – fluorescence, HTS (AID 430); format: functional, cell-based; conditions: Homo sapiens
[5] = viability loss in THP-1 monocytes – THP-1 cells, cytotoxicity control for Vif-APOBEC3G degradation inhibitor project, dose response (AID 1117359); format: functional; conditions: THP-1
[6] = molecular target: T1, Protein Tat (Human immunodeficiency virus type 1 group M subtype B (isolate HXB2)(HIV-1), UniProt P04608); format: functional;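 note: tat binding to TAR RNA read out by fluorescence polarization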
T1 sequence (P04608 whole entry): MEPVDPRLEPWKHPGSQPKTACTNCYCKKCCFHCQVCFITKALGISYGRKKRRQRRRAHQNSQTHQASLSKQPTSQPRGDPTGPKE

[7] = viability loss of HPDE-C7K cells – cell-based, fluorescence, HTS, primary screen (AID 431); format: functional; conditions: Homo sapiens
[8] = molecular target: T2, Glutathione-S-transferase (Schistosoma japonicum, UniProt Q26513); assay: GST-antibody interaction or FRET quenching – biochemical, TR-FRET, artefact control for Vif-APOBEC3G degradation inhibitor project, dose response (AID 1117362); format: functional
T2 sequence (Q26513 whole entry): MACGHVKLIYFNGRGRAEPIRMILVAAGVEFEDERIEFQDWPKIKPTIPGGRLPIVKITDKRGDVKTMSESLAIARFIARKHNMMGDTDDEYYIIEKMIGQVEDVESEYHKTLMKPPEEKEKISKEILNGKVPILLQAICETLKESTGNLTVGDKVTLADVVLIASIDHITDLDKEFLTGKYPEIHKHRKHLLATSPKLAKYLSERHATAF

[9] = molecular target: Nonstructural protein 1 (Influenza A virus, UniProt Q194T2); format: functional, Influenza A virus (A/California/07/2009(H1N1))
Nonstructural protein 1, sequence (Q194T2 whole entry): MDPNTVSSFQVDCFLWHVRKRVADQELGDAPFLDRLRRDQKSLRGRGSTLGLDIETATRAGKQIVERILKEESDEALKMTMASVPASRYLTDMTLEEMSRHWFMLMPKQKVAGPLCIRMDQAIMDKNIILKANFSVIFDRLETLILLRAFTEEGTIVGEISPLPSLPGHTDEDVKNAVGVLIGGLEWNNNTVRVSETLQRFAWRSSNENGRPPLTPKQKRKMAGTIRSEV

[10] = molecular target: T3, Cysteine protease ATG4B (Homo sapiens, UniProt Q9Y4P1); format: functional;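 note: Fluorescence-based dose-response confirmation assay measuring inhibition of ATG4B activity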
T3 sequence (Q9Y4P1 whole entry): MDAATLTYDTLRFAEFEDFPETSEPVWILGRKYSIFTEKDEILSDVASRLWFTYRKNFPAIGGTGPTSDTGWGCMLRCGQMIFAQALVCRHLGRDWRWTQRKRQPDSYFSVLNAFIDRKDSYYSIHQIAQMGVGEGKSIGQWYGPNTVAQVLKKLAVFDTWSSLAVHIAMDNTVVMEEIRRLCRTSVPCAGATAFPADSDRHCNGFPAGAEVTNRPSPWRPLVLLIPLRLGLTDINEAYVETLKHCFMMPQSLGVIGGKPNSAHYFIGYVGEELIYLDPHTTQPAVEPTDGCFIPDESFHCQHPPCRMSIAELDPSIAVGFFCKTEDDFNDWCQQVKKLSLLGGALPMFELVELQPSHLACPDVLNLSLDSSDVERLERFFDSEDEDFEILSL

[11] = molecular target: Phospholipase A2 (Homo sapiens, UniProt P04054); format: functional;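 note: confirmatory dose-response counterscreen on phospholipase A2, testing hits that came from an ultra-high-throughput screen for ATG4B inhibitors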
Phospholipase A2, sequence (P04054 whole entry): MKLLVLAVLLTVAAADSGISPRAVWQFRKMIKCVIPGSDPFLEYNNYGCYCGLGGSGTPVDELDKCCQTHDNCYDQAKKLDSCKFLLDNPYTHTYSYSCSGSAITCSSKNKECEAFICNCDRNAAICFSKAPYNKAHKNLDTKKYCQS

[12] = system: A-375; assay: MITF: Counter assay: A375 proliferation Measured in Cell-Based System Using Plate Reader - 2084-03_Inhibitor_Dose_DryPowder_Activity. [Related pubchem assays (depositor defined):AID488944]; format: functional; conditions: Homo sapiens
[13] = molecular target: T4, Microphthalmia-associated transcription factor (Homo sapiens, UniProt O75030); assay: reducers of TRPM1 reporter luminescence, concentration series – cell-based, SK-MEL-5, cherry-picked, set 3, MITF inhibitor project, dose response (AID 493073); format: functional;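 note: SK-MEL-5 melanoma cells with luciferase driven by the MITF target TRPM1 promoter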
T4 sequence (O75030 whole entry): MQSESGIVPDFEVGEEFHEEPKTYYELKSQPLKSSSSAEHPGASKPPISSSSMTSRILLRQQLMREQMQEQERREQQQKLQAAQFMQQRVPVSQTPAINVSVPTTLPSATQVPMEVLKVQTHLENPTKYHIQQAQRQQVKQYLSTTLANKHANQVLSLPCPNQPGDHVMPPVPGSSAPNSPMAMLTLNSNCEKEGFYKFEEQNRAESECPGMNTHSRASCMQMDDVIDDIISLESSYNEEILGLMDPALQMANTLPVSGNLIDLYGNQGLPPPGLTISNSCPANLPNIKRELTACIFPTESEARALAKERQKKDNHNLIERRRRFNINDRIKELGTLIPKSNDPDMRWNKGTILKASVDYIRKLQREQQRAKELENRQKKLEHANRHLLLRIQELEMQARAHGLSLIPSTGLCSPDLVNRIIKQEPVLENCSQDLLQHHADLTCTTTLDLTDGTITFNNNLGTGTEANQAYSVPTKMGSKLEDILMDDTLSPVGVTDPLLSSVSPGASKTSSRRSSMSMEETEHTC

For CCOc1ccc(NC(=O)c2cc3c(C)nc4ccccc4c3o2)cc1, the IC50 [1] was > 80 µM (inactive) and the IC50 [2] was > 79 µM (inactive).
With CC1CC1C(=O)OCC(=O)Nc1ccc2[nH]c(O)nc2c1 (stereo unspecified) the IC50 [3] was 5.94 µM (active).
In the case of Nc1ccc(N2CCCCCC2)cc1, the EC50 [4] is reported as 13.3 µM (active), the CC50 [5] is reported as 13.3 µM (active) and the IC50 [6] is reported as 11.8 µM (inconclusive). The EC50 [7] was 15.4 µM (active) and the IC50 [8] was 44.5 µM (active).
In the case of Cc1ccccc1/C(O)=C(\C#N)N=Nc1c(C)n(C)n(-c2ccccc2)c1=O, the IC50 [9] is reported as 10.9 µM (active).
In the case of COC(=O)CSc1ncnc2c1sc1nc(-c3ccco3)c3c(c12)CC(C)(C)OC3, the IC50 [3] is reported as 4.15 µM (active).
In the case of O=C(CSc1nc2ccccc2c(=O)n1-c1ccc(Cl)cc1)N/N=C/C=C/c1ccccc1[N+](=O)[O-], the IC50 [10] is reported as 8.92 µM (active) and the IC50 [11] is reported as 1.18 µM (active).
For Oc1c(CN2CCCC2)cc(COCc2ccccc2)c2cccnc12, the IC50 [9] was 3.78 µM (active), the AC50 [12] was 32.7 µM (active) and the AC50 [13] was 6.15 µM (active).
With COc1ccccc1NC(=O)c1cnc(Nc2ccccc2OC)c2ccccc12 the IC50 [1] was > 80 µM (inactive).
